# What was measured:
# [1] = tested on: HLA molecule (types A1, A2, A3, A11, A24, B7 and B44); assay: HLA type bound by altered telomerase peptides (Table 1); type: binding, human; details: MHC class I HLA type bound by the peptide; no test method described; listed as SEQ ID NO: 13
# CD 8+ T cell repertoire = assay: Tetramer staining of peripheral blood mononuclear cells by flow cytometry after immunization with an altered peptide (FIG. 3B); type: cell-based
sequence,measurement,setting,value
YLFFYRKSV (listed as Homo sapiens) [SEQ ID 13],HLA TYPE BOUND,[1],HLA-A2
same,expansion of CD 8+ T cell repertoire cross-reacting with the naturally occurring peptide,CD 8+ T cell repertoire,this approach is feasible
